The source of these data is patent publication US20250114338A1, “TETRAHYDRO-PYRIDO[3,4-b]INDOLE ESTROGEN RECEPTOR MODULATORS AND USES THEREOF” (Genentech, Inc., priority 2014, published 2025).

In this experiment the test system is ER-alpha MCF7. The experiment can be described thus: ER-alpha MCF7 HCS EC50; stated as measured by in vitro cell proliferation assays of Examples 902 and 903. In kind it is cell-based. Particulars: Homo sapiens, MCF7, MCF7 cells; Table 2. The method, boiled down:
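MCF7 cells seeded 1000-2000 cells/well for 16 h, then treated with nine-point 1:2 DMSO dilution series in quadruplicate at 37 °C, 5% CO2 for 4 days. Viable cells quantified by CellTiter-Glo ATP luminescence; EC50 calculated. Controls: fulvestrant at final 100 nM, DMSO 0.2% v/v.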
Take `C[C@@H]1Cc2c([nH]c3ccccc23)[C@@H](c2c(F)cc(NCCN3CC(CF)C3)cc2F)N1CC(C)(C)F` [Example 321, 3,5-difluoro-N-[2-[3-(fluoromethyl)azetidin-1-yl]ethyl]-4-[(1R,3R)-2-(2-fluoro-2-methyl-propyl)-3-methyl-1,3,4,9-tetrahydropyrido[3,4-b]indol-1-yl]aniline]: the EC50 was 0.222 nM.
The value for `C[C@@H]1Cc2c([nH]c3ccccc23)[C@@H](c2cnc(OC3CN(CCCF)C3)nc2)N1CC(C)(C)F` [Example 377, (1R,3R)-2-(2-fluoro-2-methylpropyl)-1-(2-((1-(3-fluoropropyl)azetidin-3-yl)oxy)pyrimidin-5-yl)-3-methyl-2,3,4,9-tetrahydro-1H-pyrido[3,4-b]indole] was 0.5 nM; that for `CC(C)(F)CN1CCc2c([nH]c3ccccc23)C1c1c(F)cc(OCCN2CC(CF)C2)cc1F` (stereo not shown) [Example 178, 1-[2,6-difluoro-4-[2-[3-(fluoromethyl)azetidin-1-yl]ethoxy]phenyl]-2-(2-fluoro-2-methyl-propyl)-1,3,4,9-tetrahydropyrido[3,4-b]indole] was 0.5 nM.
Then `C[C@@H]1Cc2c([nH]c3ccccc23)[C@@H](c2c(F)cc(OCCN3CC(CF)C3)cc2F)N1CC(F)F` [Example 305, (1R,3R)-2-(2,2-difluoroethyl)-1-[2,6-difluoro-4-[2-[3-(fluoromethyl)azetidin-1-yl]ethoxy]phenyl]-3-methyl-1,3,4,9-tetrahydropyrido[3,4-b]indole], with 0.216 nM; and `C[C@@H]1Cc2c([nH]c3ccccc23)[C@@H](c2c(F)cc(OCCN3CC(CF)C3)cc2F)N1CC(F)(F)CO` [Example 286, 3-[(1R,3R)-1-[2,6-difluoro-4-[2-[3-(fluoromethyl)azetidin-1-yl]ethoxy]phenyl]-3-methyl-1,3,4,9-tetrahydropyrido[3,4-b]indol-2-yl]-2,2-difluoro-propan-1-ol], with 0.0978 nM; and `C[C@@H]1Cc2c([nH]c3ccccc23)[C@@H](c2c(F)cc(OCCN3CC(CF)C3)cc2F)N1C(=O)CN(C)C` [Example 223, 1-[(1R,3R)-1-[2,6-difluoro-4-[2-[3-(fluoromethyl)azetidin-1-yl]ethoxy]phenyl]-3-methyl-1,3,4,9-tetrahydropyrido[3,4-b]indol-2-yl]-2-(dimethylamino)ethanone], with 38 nM.
As to `C[C@@H]1Cc2c([nH]c3ccccc23)[C@@H](c2c(F)cc(OC3CN(CC4(F)CC4)C3)cc2F)N1CC(C)(C)F` [Example 224, (1R,3R)-1-[2,6-difluoro-4-[1-[(1-fluorocyclopropyl)methyl]azetidin-3-yl]oxy-phenyl]-2-(2-fluoro-2-methyl-propyl)-3-methyl-1,3,4,9-tetrahydropyrido[3,4-b]indole], the EC50 came out at 0.316 nM.
The value for `COC(CCN1CC(Oc2cc(F)c([C@@H]3c4[nH]c5ccccc5c4C[C@@H](C)N3CC(C)(C)F)c(F)c2)C1)OC` [Example 176, (1R,3R)-1-[4-[1-(3,3-dimethoxypropyl)azetidin-3-yl]oxy-2,6-difluoro-phenyl]-2-(2-fluoro-2-methyl-propyl)-3-methyl-1,3,4,9-tetrahydropyrido[3,4-b]indole] was 0.031 nM.
Consider `C[C@@H]1Cc2c([nH]c3ccccc23)[C@@H](c2c(F)cc(OCCN3CC(CF)C3)cc2F)N1C[C@H](CO)C(F)(F)F` [Example 319, (R)-2-(((1R,3R)-1-(2,6-difluoro-4-(2-(3-(fluoromethyl)azetidin-1-yl)ethoxy)phenyl)-3-methyl-1,3,4,9-tetrahydro-2H-pyrido[3,4-b]indol-2-yl)methyl)-3,3,3-trifluoropropan-1-ol], for which the EC50 was 0.43 nM.
`C[C@@H]1Cc2c([nH]c3ccccc23)[C@@H](c2c(F)cc(OCCN3CC(CF)C3)cc2F)N1C(=O)C1CSC1` [Example 214, [(1R,3R)-1-[2,6-difluoro-4-[2-[3-(fluoromethyl)azetidin-1-yl]ethoxy]phenyl]-3-methyl-1,3,4,9-tetrahydropyrido[3,4-b]indol-2-yl]-(thietan-3-yl)methanone]: the EC50 is 4 nM.
Then `C[C@@H]1Cc2c([nH]c3ccccc23)[C@H](c2ccc(OCCN3CC(CF)C3)cc2F)N1C(=O)C(C)(C)F` [Example 229, 2-fluoro-1-[(1S,3R)-1-[2-fluoro-4-[2-[3-(fluoromethyl)azetidin-1-yl]ethoxy]phenyl]-3-methyl-1,3,4,9-tetrahydropyrido[3,4-b]indol-2-yl]-2-methyl-propan-1-one], with 25 nM.
Then `C[C@@H]1Cc2c([nH]c3ccccc23)[C@@H](c2c(F)cc(OCCN3CC(CF)C3)cc2F)N1CC(C)(C)O` [Example 127, 1-[(1R,3R)-1-[2,6-difluoro-4-[2-[3-(fluoromethyl)azetidin-1-yl]ethoxy]phenyl]-3-methyl-1,3,4,9-tetrahydropyrido[3,4-b]indol-2-yl]-2-methyl-propan-2-ol], with 0.641 nM; and `C[C@@H]1Cc2c([nH]c3ccccc23)[C@@H](c2c(F)cc(OC3CN(C(=O)OC(C)(C)C)C3)cc2F)N1CC(C)(C)F` [Example 170, tert-butyl 3-[3,5-difluoro-4-[(1R,3R)-2-(2-fluoro-2-methyl-propyl)-3-methyl-1,3,4,9-tetrahydropyrido[3,4-b]indol-1-yl]phenoxy]azetidine-1-carboxylate], with 1 nM; and `Cc1cc(OC2CN(CCCF)C2)ccc1[C@@H]1c2[nH]c3ccccc3c2C[C@@H](C)N1CC(C)(C)F` [Example 256, (1R,3R)-2-(2-fluoro-2-methyl-propyl)-1-[4-[1-(3-fluoropropyl)azetidin-3-yl]oxy-2-methyl-phenyl]-3-methyl-1,3,4,9-tetrahydropyrido[3,4-b]indole], with 1.69 nM.
On to `C[C@@H]1Cc2c([nH]c3ccccc23)[C@@H](c2c(F)cc(OC3CN(CCCCF)C3)cc2F)N1CC(C)(C)F` [Example 337, (1R,3R)-1-[2,6-difluoro-4-[1-(4-fluorobutyl)azetidin-3-yl]oxy-phenyl]-2-(2-fluoro-2-methyl-propyl)-3-methyl-1,3,4,9-tetrahydropyrido[3,4-b]indole], for which the EC50 was found to be 0.387 nM.
On to `C[C@@H]1Cc2c([nH]c3ccccc23)[C@@H](c2c(F)cc(OCCN3CC(CF)C3)cc2F)N1CC1(CO)CC1` [Example 243, (1-(((1R,3R)-1-(2,6-difluoro-4-(2-(3-(fluoromethyl)azetidin-1-yl)ethoxy)phenyl)-3-methyl-1,3,4,9-tetrahydro-2H-pyrido[3,4-b]indol-2-yl)methyl)cyclopropyl) methanol], for which the EC50 is 2 nM.
The value for `C[C@@H]1Cc2c([nH]c3ccccc23)[C@@H](c2c(F)cc(OC3CNC3)cc2F)N1CC(C)(C)F` [Example 132, (1R,3R)-1-[4-(azetidin-3-yloxy)-2,6-difluoro-phenyl]-2-(2-fluoro-2-methyl-propyl)-3-methyl-1,3,4,9-tetrahydropyrido[3,4-b]indole] was 0.31 nM; that for `C[C@@H]1Cc2c([nH]c3ccccc23)[C@@H](c2c(F)cc(OCCN3CC(CF)C3)cc2F)N1CC(C)(C)C` [Example 147, (1R,3R)-1-[2,6-difluoro-4-[2-[3-(fluoromethyl)azetidin-1-yl]ethoxy]phenyl]-2-(2,2-dimethylpropyl)-3-methyl-1,3,4,9-tetrahydropyrido[3,4-b]indole] was 0.698 nM; that for `C[C@@H]1Cc2c([nH]c3ccccc23)[C@@H](c2ccc(OCCN3CC(CF)C3)cc2Cl)N1CC(C)(C)F` [Example 210, (1R,3R)-1-[2-chloro-4-[2-[3-(fluoromethyl)azetidin-1-yl]ethoxy]phenyl]-2-(2-fluoro-2-methyl-propyl)-3-methyl-1,3,4,9-tetrahydropyrido[3,4-b]indole] was 0.1 nM.
`CC[C@H]1Cc2c([nH]c3ccccc23)[C@@H](c2c(F)cc(OCCN3CC(CF)C3)cc2F)N1CC(C)(C)F` [Example 172, (1R,3S)-1-(2,6-difluoro-4-(2-(3-(fluoromethyl)azetidin-1-yl)ethoxy)phenyl)-3-ethyl-2-(2-fluoro-2-methylpropyl)-2,3,4,9-tetrahydro-1H-pyrido[3,4-b]indole]: the EC50 stood at 17 nM.
The value for `C[C@@H]1Cc2c([nH]c3ccc(F)cc23)[C@@H](c2c(F)cc(NC3CN(CCCF)C3)cc2F)N1C[C@@](C)(F)CO` [Example 431, (R)-3-((1R,3R)-1-(2,6-difluoro-4-((1-(3-fluoropropyl)azetidin-3-yl)amino)phenyl)-6-fluoro-3-methyl-1,3,4,9-tetrahydro-2H-pyrido[3,4-b]indol-2-yl)-2-fluoro-2-methylpropan-1-ol] was 0.0943 nM.
As to `C[C@@H]1Cc2c([nH]c3ccccc23)[C@@H](c2c(F)cc(OC3CN(CCCF)C3)cc2F)N1CC(C)(C)CO` [Example 284, 3-[(1R,3R)-1-[2,6-difluoro-4-[1-(3-fluoropropyl)azetidin-3-yl]oxy-phenyl]-3-methyl-1,3,4,9-tetrahydropyrido[3,4-b]indol-2-yl]-2,2-dimethyl-propan-1-ol], the concentration giving a half-maximal response (EC50) is 0.382 nM.
The value for `C[C@@H]1Cc2c([nH]c3ccccc23)[C@@H](c2c(F)cc(OC3(C)CN(CCCF)C3)cc2F)N1CC(C)(C)F` [Example 343, (1R,3R)-1-(2,6-difluoro-4-((1-(3-fluoropropyl)-3-methylazetidin-3-yl)oxy)phenyl)-2-(2-fluoro-2-methylpropyl)-3-methyl-2,3,4,9-tetrahydro-1H-pyrido[3,4-b]indole] was 0.2 nM; that for `CC(C)[S@@+]([O-])N1[C@H](c2ccc(OCCN3CC(CF)C3)cc2)c2[nH]c3ccccc3c2C[C@H]1C` [Example 333, (1R,3R)-1-(4-(2-(3-(fluoromethyl)azetidin-1-yl)ethoxy)phenyl)-2-((R)-isopropylsulfinyl)-3-methyl-2,3,4,9-tetrahydro-1H-pyrido[3,4-b]indole] was 48 nM; that for `CC(O)CC(=O)N1[C@H](c2c(F)cc(OCCN3CC(CF)C3)cc2F)c2[nH]c3ccccc3c2C[C@H]1C` (stereo partly drawn) [Example 212, 1-((1R,3R)-1-(2,6-difluoro-4-(2-(3-(fluoromethyl)azetidin-1-yl)ethoxy)phenyl)-3-methyl-3,4-dihydro-1H-pyrido[3,4-b]indol-2(9H)-yl)-3-hydroxybutan-1-one] was 1 nM.
